Measured values published in patent publication US20240294543A1, “CYCLOHEPTA-THIENO-DIAZEPINE DERIVATIVES AS GABA A GAMMA1 PAM” (Hoffmann-La Roche Inc., priority 2021, published 2024).

What was measured:
[1] = target: human GABAA α5β2γ1 receptor (Homo sapiens (Human), UniProt P31644+Q8N1C3); experiment: Radioligand binding assay, competition for [3H]RO7239181, γ1-containing GABAA subtypes
h-GABA-A α2β2γ1 = h-GABA-A α2β2γ1 (Homo sapiens (Human), UniProt P47869+Q8N1C3); experiment: Two-electrode voltage clamp electrophysiology in Xenopus oocytes expressing GABAA receptors; type: cell-based; conditions: for Efficacy (GABA) %: % modulation of GABA EC20 = 100*(Fold increase−1), compound at about 30-fold its Ki α2β2γ1; for Fold increase h-GABA-A α2β2γ1 oocyte @ 30-fold Ki: Xenopus oocytes, GABA EC20, compound at about 30-fold its Ki α2β2γ1
Protocol: Xenopus Oocytes Preparation Xenopus laevis oocytes at maturation stages V-VI were used for the expression of cloned mRNA encoding GABAA receptor subunits. Oocytes ready for RNA micro-injection were bought from Ecocyte, Castrop-Rauxel, Germany and stored in modified Barth's medium (composition in mM: NaCl 88, KCl 1, NaHCO3 2.4, HEPES 10, MgSO4 0.82, CaNO3 0.33, CaCl2 0.33, pH=7.5) at 20° C. until the experiment.
Oocytes were plated in 96-well plates for microinjection using the Roboinject automated instrument (MultiChannelSystems, Reutlingen, Germany). Approximately 50 nL of an aqueous solution containing the RNA transcripts for the subunits of the desired GABAA receptor subtype was injected into each oocyte. […] Oocytes were kept in modified Barth's medium (composition in mM: NaCl 88, KCl 1, NaHCO3 […], HEPES 10, MgSO4 0.82, CaNO3 0.33, CaCl2 0.33, pH=7.5) at 20° C. until the experiment.
Electrophysiological experiments were performed using the Roboocyte instrument (MultiChannelSystems, Reutlingen, Germany) on days 3 to 5 after the micro-injection of mRNA. During the experiment the oocytes were constantly superfused by a solution containing (in mM) NaCl 90, KCl 1, HEPES 5, MgCl2 1, CaCl2 1 (pH 7.4). Oocytes were impaled by two glass microelectrodes (resistance: 0.5-0.8 MQ) which were filled with a solution containing KCl 1M+K-acetate 1.5 M and voltage-clamped to −80 mV. The recordings were performed at room temperature using the Roboocyte two-electrode voltage clamp system (Multichannelsystem). After an initial equilibration period of 1.5 min GABA was added for 1.5 min at a concentration evoking approximately 20% of a maximal current response (EC20). After another rest interval of 2.5 min GABA was again added evoking a response of similar amplitude and shape. […] Current traces were recorded at a digitization rate of 10 Hz during and shortly before and after the GABA application.
Each compound and concentration was tested on at least 3 oocytes. Different oocytes were used for different compound concentrations.
For the analysis, the digitized current traces of the first and second GABA response were superimposed and, if necessary, rescaled to equal maximal amplitudes. The ratio between the two responses during the time interval of test compound application was calculated point by point. The extremum of the resulting “ratio trace” was taken as the efficacy (“Fold increase”) of the compound expressed as “% modulation of GABA EC20” (100*(Fold increase−1)).

SMILES | Ki [1] [nM] | Efficacy (GABA) % (h-GABA-A α2β2γ1) [%] | Fold increase h-GABA-A α2β2γ1 oocyte @ 30-fold Ki (h-GABA-A α2β2γ1)
Cc1nc2n(n1)-c1sc3c(c1C(c1c(F)cccc1F)=N[C@H]2C)CCCCC3 [Example 20, (7S)-9-(2,6-difluorophenyl)-4,7-dimethyl-18-thia-2,3,5,8-tetrazatetracyclo[8.8.0.02,6.011,17]octadeca-1(10),3,5,8,11(17)-pentaene] | 0.98 | 76 | 1.76
Cc1nnc2n1-c1sc3c(c1C(c1c(F)cccc1F)=N[C@H]2C)COCCO3 [Example 21, (7S)-9-(2,6-difluorophenyl)-3,7-dimethyl-13,16-dioxa-18-thia-2,4,5,8-tetrazatetracyclo[8.8.0.02,6.011,17]octadeca-1(10),3,5,8,11(17)-pentaene] | 2.33 | 140 | 2.40
C[C@@H]1N=C(c2c(F)cccc2F)c2c(sc3c2COCCO3)-n2nc(C(=O)N3CCC3)nc21 [Example 22, azetidin-1-yl-[(7S)-9-(2,6-difluorophenyl)-7-methyl-13,16-dioxa-18-thia-2,3,5,8-tetrazatetracyclo[8.8.0.02,6.011,17]octadeca-1(10),3,5,8,11(17)-pentaen-4-yl]methanone] | 1.12 | 88 | 1.88
[2H]C1([2H])OCc2c(sc3c2C(c2c(F)cccc2F)=N[C@@H](C)c2nc(C(=O)N4CCC4)nn2-3)OC1([2H])[2H] [Example 23, azetidin-1-yl-[(7S)-14,14,15,15-tetradeuterio-9-(2,6-difluorophenyl)-7-methyl-13,16-dioxa-18-thia-2,3,5,8-tetrazatetracyclo[8.8.0.02,6.011,17]octadeca-1(10),3,5,8,11(17)-pentaen-4-yl]methanone] | 2.49 | 63 | 1.63
C[C@@H]1N=C(c2c(F)cccc2F)c2c(sc3c2COCCO3)-n2nc(C(=O)N3CC(F)C3)nc21 [Example 24, (3-fluoroazetidin-1-yl)-[(7S)-9-(2,6-difluorophenyl)-7-methyl-13,16-dioxa-18-thia-2,3,5,8-tetrazatetracyclo[8.8.0.02,6.011,17]octadeca-1(10),3,5,8,11(17)-pentaen-4-yl]methanone] | 1.25 | 59 | 1.59
C[C@@H]1N=C(c2c(F)cccc2F)c2c(sc3c2COCCO3)-n2nc(C(=O)NCCF)nc21 [Example 25, (7S)-9-(2,6-difluorophenyl)-N-(2-fluoroethyl)-7-methyl-13,16-dioxa-18-thia-2,3,5,8-tetrazatetracyclo[8.8.0.02,6.011,17]octadeca-1(10),3,5,8,11(17)-pentaene-4-carboxamide] | 2.1 | 99 | 1.99
Cc1cn2c(nc1=O)[C@H](C)N=C(c1c(F)cccc1F)c1c-2sc2c1CCCCC2 [Example 26, (8S)-10-(2,6-difluorophenyl)-4,8-dimethyl-19-thia-2,6,9-triazatetracyclo[9.8.0.02,7.012,18]nonadeca-1(11),3,6,9,12(18)-pentaen-5-one] | 3.78 | 109 | 2.09
Cc1nnc2n1-c1sc3c(c1C(c1c(F)cccc1F)=N[C@H]2C)CC[C@@H](O)CC3 [Example 27, (7S,14R)-9-(2,6-difluorophenyl)-3,7-dimethyl-18-thia-2,4,5,8-tetrazatetracyclo[8.8.0.02,6.011,17]octadeca-1(10),3,5,8,11(17)-pentaen-14-ol] | 10.9 | 77 | 1.77
Cc1nc2n(n1)-c1sc3c(c1C(c1c(F)cccc1F)=N[C@H]2C)COCCO3 [Example 28, (7S)-9-(2,6-difluorophenyl)-4,7-dimethyl-13,16-dioxa-18-thia-2,3,5,8-tetrazatetracyclo[8.8.0.02,6.011,17]octadeca-1(10),3,5,8,11(17)-pentaene] | 0.89 | 40 | 1.40
C[C@@H]1N=C(c2c(F)cccc2F)c2c(sc3c2COCCO3)-n2nc(C(=O)N3CC(OC(C)(C)C)C3)nc21 [Example 29, (3-tert-butoxyazetidin-1-yl)-[(7S)-9-(2,6-difluorophenyl)-7-methyl-13,16-dioxa-18-thia-2,3,5,8-tetrazatetracyclo[8.8.0.02,6.011,17]octadeca-1(10),3,5,8,11(17)-pentaen-4-yl]methanone] | 1.82 | 79 | 1.79
Cc1nnc2n1-c1sc3c(c1C(c1c(F)cccc1F)=N[C@H]2C)COC[C@H](C)O3 [Example 30, (7S,15S)-9-(2,6-difluorophenyl)-3,7,15-trimethyl-13,16-dioxa-18-thia-2,4,5,8-tetrazatetracyclo[8.8.0.02,6.011,17]octadeca-1(10),3,5,8,11(17)-pentaene] | 3.28 | 150 | 2.50
CCOC1CN(C(=O)c2nc3n(n2)-c2sc4c(c2C(c2c(F)cccc2F)=N[C@H]3C)COCCO4)C1 [Example 31, [(7S)-9-(2,6-Difluorophenyl)-7-methyl-13,16-dioxa-18-thia-2,3,5,8-tetrazatetracyclo[8.8.0.02,6.011,17]octadeca-1(10),3,5,8,11(17)-pentaen-4-yl]-(3-ethoxyazetidin-1-yl)methanone] | 2.4 | 69 | 1.69
Cc1nnc2n1-c1sc3c(c1C(c1c(F)cccc1F)=N[C@H]2C)OCCCC3 [Example 33, (7S)-9-(2,6-difluorophenyl)-3,7-dimethyl-12-oxa-18-thia-2,4,5,8-tetrazatetracyclo[8.8.0.02,6.011,17]octadeca-1(10),3,5,8,11(17)-pentaene] | 21.8 | 76 | 1.76
Cc1nnc2n1-c1sc3c(c1C(c1c(F)cccc1Cl)=N[C@H]2C)COCCO3 [Example 35, (7S)-9-(2-chloro-6-fluoro-phenyl)-3,7-dimethyl-13,16-dioxa-18-thia-2,4,5,8-tetrazatetracyclo[8.8.0.02,6.011,17]octadeca-1(10),3,5,8,11(17)-pentaene] | 5.21 | 61 | 1.61
C[C@@H]1N=C(c2c(F)cccc2F)c2c(sc3c2COCCO3)-n2nc(C(=O)NC3CC3)nc21 [Example 36] | 3.66 | 89 | 1.89
CCNC(=O)c1nc2n(n1)-c1sc3c(c1C(c1c(F)cccc1F)=N[C@H]2C)COCCO3 [Example 37, (7S)-9-(2,6-difluorophenyl)-N-ethyl-7-methyl-13,16-dioxa-18-thia-2,3,5,8-tetrazatetracyclo[8.8.0.02,6.011,17]octadeca-1(10),3,5,8,11(17)-pentaene-4-carboxamide] | 3.21 | 86 | 1.86
Cc1nc2n(n1)-c1sc3c(c1C(c1c(F)cccc1F)=N[C@H]2C)COC[C@H](C)O3 [Example 39, (7S,15S)-9-(2,6-difluorophenyl)-4,7,15-trimethyl-13,16-dioxa-18-thia-2,3,5,8-tetrazatetracyclo[8.8.0.02,6.011,17]octadeca-1(10),3,5,8,11(17)-pentaene] | 3.47 | 150 | 2.50
C[C@@H]1N=C(c2c(F)cccc2F)c2c(sc3c2COC[C@H](C)O3)-n2nc(C(=O)N3CC(F)C3)nc21 [Example 40, [(7S,15S)-9-(2,6-difluorophenyl)-7,15-dimethyl-13,16-dioxa-18-thia-2,3,5,8-tetrazatetracyclo[8.8.0.02,6.011,17]octadeca-1(10),3,5,8,11(17)-pentaen-4-yl]-(3-fluoroazetidin-1-yl)methanone] | 2.65 | 141 | 2.41
